Source: the supplement of paper PMC10307832

Columns and labels:
Assay in all cases: relative viability (nuclei count vs DMSO), 5 days (fraction); higher = more cells survive
KIN001-266 + Crizotinib = compound: CCN1CCC(CC1)N2C=C(N=N2)CNC3=CC4=C(C(=CN=C4C(=C3)Cl)C#N)NC5=CC(=C(C=C5)F)Cl [KIN001-266] + C[C@@H](Oc1cc(-c2cnn(C3CCNCC3)c2)cnc1N)c1c(Cl)ccc(F)c1Cl [Crizotinib] (partner 1 µM)
Procedure, shortened: (§1)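 Dosing by pin tool came one day after lung cancer cell lines were seeded in 1536-well plates, using either one drug or a fixed anchor-drug dose plus five library-drug doses (not always all listed) in √10 steps. After 5 days, nuclei were counted on 4× images. Relative viability is treated-well nuclei count divided by vehicle-well nuclei count, and values are medians of duplicate plates.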

KIN001-266 + Tozasertib = compound: CCN1CCC(CC1)N2C=C(N=N2)CNC3=CC4=C(C(=CN=C4C(=C3)Cl)C#N)NC5=CC(=C(C=C5)F)Cl [KIN001-266] + Cc1cc(Nc2cc(N3CCN(C)CC3)nc(Sc3ccc(NC(=O)C4CC4)cc3)n2)n[nH]1 [Tozasertib] (partner 0.1 µM)
Procedure, shortened: as §1

KIN001-266 + Decitabine = compound: CCN1CCC(CC1)N2C=C(N=N2)CNC3=CC4=C(C(=CN=C4C(=C3)Cl)C#N)NC5=CC(=C(C=C5)F)Cl [KIN001-266] + Nc1ncn([C@H]2C[C@H](O)[C@@H](CO)O2)c(=O)n1 [Decitabine] (partner 2 µM)
Procedure, shortened: as §1

KIN001-266 + Lapatinib = compound: CCN1CCC(CC1)N2C=C(N=N2)CNC3=CC4=C(C(=CN=C4C(=C3)Cl)C#N)NC5=CC(=C(C=C5)F)Cl [KIN001-266] + CS(=O)(=O)CCNCc1ccc(-c2ccc3ncnc(Nc4ccc(OCc5cccc(F)c5)c(Cl)c4)c3c2)o1 [Lapatinib] (partner 2 µM)
Procedure, shortened: as §1

| Cell Line | relative viability (KIN001-266 + Crizotinib; first compound 0.08 µM) | relative viability (KIN001-266 + Crizotinib; first compound 0.253 µM) | relative viability (KIN001-266 + Crizotinib; first compound 0.8 µM) | relative viability (KIN001-266 + Crizotinib; first compound 2.53 µM) | relative viability (KIN001-266 + Crizotinib; first compound 8 µM) | relative viability (KIN001-266 + Tozasertib; first compound 0.08 µM) | relative viability (KIN001-266 + Tozasertib; first compound 0.253 µM) | relative viability (KIN001-266 + Tozasertib; first compound 0.8 µM) | relative viability (KIN001-266 + Tozasertib; first compound 2.53 µM) | relative viability (KIN001-266 + Tozasertib; first compound 8 µM) | relative viability (KIN001-266 + Decitabine; first compound 0.08 µM) | relative viability (KIN001-266 + Decitabine; first compound 0.253 µM) | relative viability (KIN001-266 + Decitabine; first compound 0.8 µM) | relative viability (KIN001-266 + Decitabine; first compound 2.53 µM) | relative viability (KIN001-266 + Decitabine; first compound 8 µM) | relative viability (KIN001-266 + Lapatinib; first compound 0.08 µM) | relative viability (KIN001-266 + Lapatinib; first compound 0.253 µM) | relative viability (KIN001-266 + Lapatinib; first compound 0.8 µM) | relative viability (KIN001-266 + Lapatinib; first compound 2.53 µM) | relative viability (KIN001-266 + Lapatinib; first compound 8 µM) |
| --- | --- | --- | --- | --- | --- | --- | --- | --- | --- | --- | --- | --- | --- | --- | --- | --- | --- | --- | --- | --- |
| NCI-H441 | 0.86 | 0.874 | 0.756 | 0.775 | 0.665 | 0.75 | 0.737 | 0.557 | 0.56 | 0.261 | 0.284 | 0.205 | 0.242 | 0.211 | 0.279 | – | – | – | – | – |
| NCI-H1299 | 0.946 | 0.921 | 0.941 | 0.87 | 0.817 | – | – | – | – | – | – | – | – | – | – | 0.918 | 0.959 | 0.902 | 0.854 | 0.855 |
| NCI-H1395 | – | – | – | – | – | 0.808 | 0.779 | 0.786 | 0.724 | 0.677 | 0.731 | 0.687 | 0.75 | 0.687 | 0.758 | 1.28 | 1.13 | 1.25 | 0.935 | 1.16 |
| NCI-H1563 | 0.877 | 0.799 | 0.95 | 0.852 | 0.879 | – | – | – | – | – | – | – | – | – | – | 1.05 | 1.1 | 0.968 | 0.922 | 0.835 |
| NCI-H1648 | – | – | – | – | – | 0.711 | 0.513 | 0.436 | 0.558 | 0.485 | 0.487 | 0.497 | 0.501 | 0.507 | 0.517 | – | – | – | – | – |
| NCI-H1703 | 0.965 | 0.675 | 0.63 | 0.457 | 0.371 | – | – | – | – | – | – | – | – | – | – | 1.02 | 0.947 | 1.25 | 0.87 | 0.532 |
| NCI-H1792 | 0.975 | 0.898 | 0.932 | 0.971 | 0.968 | – | – | – | – | – | 0.543 | 0.562 | 0.508 | 0.522 | 0.463 | 0.894 | 0.916 | 0.86 | 0.925 | 0.853 |
| NCI-H1793 | – | – | – | – | – | 0.325 | 0.416 | 0.303 | 0.323 | 0.272 | 0.574 | 0.463 | – | 0.476 | 0.364 | 0.646 | 0.643 | 0.81 | 0.485 | 0.561 |
| NCI-H2228 | 0.583 | 0.435 | 0.565 | 0.493 | 0.471 | 0.312 | 0.255 | 0.266 | 0.192 | 0.264 | – | – | – | – | – | 1.06 | 1.04 | 0.883 | 0.834 | 0.882 |
| NCI-H2342 | – | – | – | – | – | 0.524 | 0.506 | 0.584 | 0.627 | 0.414 | 0.693 | 0.762 | 0.662 | 0.872 | 0.817 | – | – | – | – | – |
| SW 900 | – | – | – | – | – | 0.741 | 0.584 | 0.567 | 0.482 | 0.491 | 0.733 | 0.448 | 0.463 | 0.427 | 0.343 | – | – | – | – | – |
